Experimental data taken from US20090074791A1, “Phenylisoquinoline and Phenylquinazoline Derivatives” (priority 2007, published 2009).
pIC50: −log10 of the molar value.

target: T1, human PCaR (parathyroid Calcium receptor) (Homo sapiens, UniProt P41180); assay: Intracellular free calcium assay: inhibition of calcium transients stimulated by extracellular calcium (antagonism at PCaR); type: cell-based; details: CCL39 fibroblasts stably transfected with human PCaR; Fluo-3 AM; stimulated with calcium (2.5 mM final)
T1 construct: expressed in transfected cells; host or cells: CCL39 fibroblasts (stably transfected)
T1 sequence (P41180 20-1078): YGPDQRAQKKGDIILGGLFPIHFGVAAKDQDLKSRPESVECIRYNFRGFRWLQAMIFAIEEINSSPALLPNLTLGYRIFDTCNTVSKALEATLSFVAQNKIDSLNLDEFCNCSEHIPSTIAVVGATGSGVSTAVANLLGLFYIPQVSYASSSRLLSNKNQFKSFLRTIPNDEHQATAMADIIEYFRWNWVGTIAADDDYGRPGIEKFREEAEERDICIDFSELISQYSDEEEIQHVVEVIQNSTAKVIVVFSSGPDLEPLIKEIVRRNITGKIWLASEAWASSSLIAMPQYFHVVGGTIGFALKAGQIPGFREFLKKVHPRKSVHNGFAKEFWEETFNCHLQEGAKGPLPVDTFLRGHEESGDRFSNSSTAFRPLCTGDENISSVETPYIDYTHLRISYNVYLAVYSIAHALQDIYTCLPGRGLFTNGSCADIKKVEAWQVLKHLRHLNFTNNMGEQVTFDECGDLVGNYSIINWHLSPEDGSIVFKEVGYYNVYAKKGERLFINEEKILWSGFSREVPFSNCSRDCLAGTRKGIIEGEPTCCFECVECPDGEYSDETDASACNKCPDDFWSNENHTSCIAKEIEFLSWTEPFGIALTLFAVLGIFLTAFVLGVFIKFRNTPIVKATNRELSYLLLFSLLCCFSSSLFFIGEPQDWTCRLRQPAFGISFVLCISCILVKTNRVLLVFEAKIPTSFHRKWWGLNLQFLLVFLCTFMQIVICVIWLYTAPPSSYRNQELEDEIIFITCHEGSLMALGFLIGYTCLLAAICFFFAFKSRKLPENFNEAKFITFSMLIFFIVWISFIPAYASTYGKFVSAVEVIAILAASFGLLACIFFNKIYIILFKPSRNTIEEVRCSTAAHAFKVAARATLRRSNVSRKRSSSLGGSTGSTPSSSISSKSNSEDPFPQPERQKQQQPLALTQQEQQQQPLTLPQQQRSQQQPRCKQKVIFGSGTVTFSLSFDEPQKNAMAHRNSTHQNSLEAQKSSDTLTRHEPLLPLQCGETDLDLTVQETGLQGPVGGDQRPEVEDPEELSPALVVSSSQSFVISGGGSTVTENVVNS
Procedure: A suitable and well validated assay to measure the anabolic effect on bone formation is the assay to detect intracellular free calcium, i.e. the method to determine antagonism at the parathyroid Calcium receptor (PCaR) consists in measuring the inhibition of intracellular calcium transients stimulated by extracellular calcium:
CCL39 fibroblasts stably transfected with human PCaR are seeded at 40'000 cells/well into 96-well Viewplates and incubated for 24 hours. Medium is then removed and replaced with fresh medium containing 2 μM Fluo-3 AM (Molecular Probes, Leiden, The Netherlands), In routine experiments, cells are incubated at 37° C., 5% CO2 for 1 h. Afterwards, plates are washed twice with mHBS and wells are refilled with 100 μl mHBS containing the test compounds. Incubation is continued at room temperature for 15 minutes. To record changes of intracellular free calcium, plates are transferred to fluorescence-imaging plate reader (Molecular Devices, Sunnyvale, Calif., USA). A baseline consisting in 5 measurements of 0.4 seconds each (laser excitation 488 nm) is recorded. Cells are then stimulated with calcium (2.5 mM final), and fluorescence changes recorded over a period of 3 minutes.

| pIC50 | SMILES |
| --- | --- |
| 9.59 | C#CCOc1ccc2nc(-c3nc4cc(C(=O)CCC)c(C)cc4n3C)nc(-c3ccc(C(C)C)cc3)c2c1 [Example 1, 1-{2-[4-(4-Isopropyl-phenyl)-6-prop-2-ynyloxy-quinazolin-2-yl]-1,6-dimethyl-1H-benzoimidazol-5-yl}-butan-1-one] |
| 9.03 | C#CCOc1ccc2nc(-c3nc4ccc(C#N)cc4[nH]3)nc(-c3ccc(C(C)C)cc3)c2c1 [Example 3, 2-[4-(4-Isopropyl-phenyl)-6-prop-2-ynyloxy-quinazolin-2-yl]-3H-benzoimidazole-5-carbonitrile] |
| 8.96 | C#CCOc1ccc2nc(-c3nc4cc(F)ccc4n3C)nc(-c3ccc(C(C)C)cc3)c2c1 [Example 5, 2-(5-Fluoro-1-methyl-1H-benzoimidazol-2-yl)-4-(4-isopropyl-phenyl)-6-prop-2-ynyloxy-quinazoline] |
| 9.15 | C#CCOc1ccc2nc(-c3nc4cc(OC)ccc4n3C)nc(-c3ccc(C(C)C)cc3)c2c1 [Example 6, 4-(4-Isopropyl-phenyl)-2-(5-methoxy-1-methyl-1H-benzoimidazol-2-yl)-6-prop-2-ynyloxy-quinazoline] |
| 8.82 | C#CCOc1ccc2nc(-c3nc4ccccc4n3C)nc(-c3ccc(C(C)C)cc3)c2c1 [Example 8, 4-(4-Isopropyl-phenyl)-2-(1-methyl-1H-benzoimidazol-2-yl)-6-prop-2-ynyloxy-quinazoline] |
| 9.02 | C#CCOc1ccc2nc(-c3nc4ccc(C(F)(F)F)cc4[nH]3)nc(-c3ccc(C(C)C)cc3)c2c1 [Example 14, 4-(4-Isopropyl-phenyl)-6-prop-2-ynyloxy-2-(6-trifluoromethyl-1H-benzoimidazol-2-yl)-quinazoline] |
| 9.02 | C#CCOc1ccc2nc(-c3nc4ccc(OC)cc4[nH]3)nc(-c3ccc(C(C)C)cc3)c2c1 [Example 15, 4-(4-Isopropyl-phenyl)-2-(6-methoxy-1H-benzoimidazol-2-yl)-6-prop-2-ynyloxy-quinazoline] |
| 9.28 | C#CCOc1ccc2nc(-c3nc4ccc(Cl)cc4[nH]3)nc(-c3ccc(C(C)C)cc3)c2c1 [Example 16, 2-(6-Chloro-1H-benzoimidazol-2-yl)-4-(4-isopropyl-phenyl)-6-prop-2-ynyloxy-quinazoline] |
| 9.13 | C#CCOc1ccc2nc(-c3nc4ccc(C(=O)OCC)cc4[nH]3)nc(-c3ccc(C(C)C)cc3)c2c1 [Example 17, 2-[4-(4-Isopropyl-phenyl)-6-prop-2-ynyloxy-quinazolin-2-yl]-3H-benzoimidazole-5-carboxylic acid ethyl ester] |
| 9.17 | C#CCOc1ccc2nc(-c3nc4ccc(C(=O)c5ccccc5)cc4[nH]3)nc(-c3ccc(C(C)C)cc3)c2c1 [Example 18, {2-[4-(4-isopropyl-phenyl)-6-prop-2-ynyloxy-quinazolin-2-yl]-3H-benzoimidazol-5-yl}phenyl-methanone] |
| 9.06 | C#CCOc1ccc2nc(-c3nc4ccc(Br)cc4[nH]3)nc(-c3ccc(C(C)C)cc3)c2c1 [Example 19, 2-(6-Bromo-1H-benzoimidazol-2-yl)-4-(4-isopropyl-phenyl)-6-prop-2-ynyloxy-quinazoline] |
| 8.80 | C#CCOc1ccc2nc(-c3nc4ccc(F)cc4[nH]3)nc(-c3ccc(C(C)C)cc3)c2c1 [Example 20, 2-(6-Fluoro-1H-benzoimidazol-2-yl)-4-(4-isopropyl-phenyl)-6-prop-2-ynyloxy-quinazoline] |
| 8.85 | C#CCOc1ccc2nc(-c3nc4cc(F)c(Cl)cc4[nH]3)nc(-c3ccc(C(C)C)cc3)c2c1 [Example 21, 2-(6-Chloro-5-fluoro-1H-benzoimidazol-2-yl)-4-(4-isopropyl-phenyl)-6-prop-2-ynyloxy-quinazoline] |
| 9.20 | C#CCOc1ccc2nc(-c3nc4cc(C(F)(F)F)ccc4n3C)nc(-c3ccc(C(C)C)cc3)c2c1 [Example 22, 4-(4-Isopropyl-phenyl)-2-(1-methyl-5-trifluoromethyl-1H-benzoimidazol-2-yl)-6-prop-2-ynyloxy-quinazoline] |
| 9.40 | C#CCOc1ccc2nc(-c3nc4cc(C(=O)OCC)ccc4n3C)nc(-c3ccc(C(C)C)cc3)c2c1 [Example 23, 2-[4-(4-Isopropyl-phenyl)-6-prop-2-ynyloxy-quinazolin-2-yl]-1-methyl-1H-benzoimidazole-5-carboxylic acid ethyl ester] |
| 9.00 | C#CCOc1ccc2nc(-c3nc4cc(C(C)=O)ccc4n3C)nc(-c3ccc(C(C)C)cc3)c2c1 [Example 24, 1-{2-[4-(4-Isopropyl-phenyl)-6-prop-2-ynyloxy-quinazolin-2-yl]-1-methyl-1H-benzoimidazol-5-yl}ethanone] |
| 9.36 | C#CCOc1ccc2nc(-c3nc4cc(F)c(F)cc4[nH]3)nc(-c3ccc(C(C)C)cc3)c2c1 [Example 25, 2-(5,6-Difluoro-1H-benzoimidazol-2-yl)-4-(4-isopropyl-phenyl)-6-prop-2-ynyloxy-quinazoline] |
| 9.23 | C#CCOc1ccc2nc(-c3nc4cccc(C(C)=O)c4[nH]3)nc(-c3ccc(C(C)C)cc3)c2c1 [Example 26, 1-{2-[4-(4-Isopropyl-phenyl)-6-prop-2-ynyloxy-quinazolin-2-yl]-3H-benzoimidazol-4-yl}-ethanone] |
| 9.19 | C#CCOc1ccc2nc(-c3nc4ccc(C(=O)OCC)cc4n3C)nc(-c3ccc(C(C)C)cc3)c2c1 [Example 36, 2-[4-(4-Isopropyl-phenyl)-6-prop-2-ynyloxy-quinazolin-2-yl]-3-methyl-3H-benzoimidazole-5-carboxylic acid ethyl ester] |
